Square brackets hold non-standard residues; d marks the D form. Peptide text beside a SMILES is read from it. Ala(1H-tetrazol-5-yl) = N[C@@H](Cc1nnn[nH]1)C(=O)O
Test: Peptide stability tests 2 and 3: Tris buffer pH 7.0, stored at 60° C., HPLC conditions 2
Assay type: physicochemical
Settings: 100 μM peptide, Tris buffer pH 7.0, 60° C.; for survival rate after correction for water, 60° C., 2-week storage: 2 weeks
Description: (§1) Peptides 1, 2 and 6 to 9 synthesized in Example 2 were weighed and dissolved in Tris buffer (pH 7.0) to prepare 1.0 mM peptide solutions. The solutions were filtered with a Chromatdisk (product of Merck Millipore, Millex-GV, 0.22 μm). Each filtrate was diluted to 100 μM with Tris buffer (pH 7.0) and dispensed into a tube (Protein LoBind Tube by Eppendorf Co.). The prepared peptide solutions were incubated for 1 week or 2 weeks in a 60° C. thermostatic bath to obtain stored samples. A simultaneously prepared sample among the peptide solutions that was not stored was used as a standard sample (initial sample). The standard sample and the stored samples were stored at −30° C. until sample analysis.
Each stored sample was measured under the following HPLC analysis conditions 2, and the survival rate after correction for water for each peptide among the stored samples was calculated in the same manner as Example 3.
Column: XSelect CSH C18 by Waters Co., 5 μm, 4.6×250 mm
Guard column: XSelect CSH C18 by Waters. Co., 5 μm, 4.6×20 mm Guard Cartridge
Detection wavelength: 220 nm
Mobile phase A: 0.1% formic acid in water
Mobile phase B: 0.1% formic acid in acetonitrile
Measuring time: 20 minutes
Measuring sample injection rate: 50 μL
Column temperature: 40° C.
Mobile phase delivery: The mixing ratio of mobile phase A and mobile phase B was varied as shown in Table 5 for linear concentration gradient control.
as §1, with “Peptides 12 to 25, 27” for “Peptides 1, 2”, “and 28” for “and 6 to 9”, “for one” for “for 1”
The survival rate after correction for water for each peptide among the stored samples was calculated in the same manner as Example 4, and the results are shown in Table 7.
as §1, with “29” for “1, 2 and 6”, “34” for “9”, “for” for “for 1 week or”
The survival rate after correction for water for each peptide among the stored samples was calculated in the same manner as Example 4, and the results are shown in Table 7-2.

With `CC[C@H](C)[C@H](NC(=O)CNC(=O)[C@H](Cc1nnn[nH]1)NC(=O)[C@H](CO)NC(=O)[C@H](Cc1c[nH]cn1)NC(C)=O)C(=O)N[C@@H](Cc1ccccc1)C(=O)N[C@H](C(=O)N[C@@H](Cc1nnn[nH]1)C(=O)N[C@@H](CO)C(=O)N[C@@H](Cc1ccc(O)cc1)C(=O)N[C@@H](CO)C(=O)N[C@@H](CCCNC(=N)N)C(=O)N[C@@H](Cc1ccc(O)cc1)C(=O)N[C@@H](CCCNC(=N)N)C(=O)N[C@@H](CCCCN)C(=O)N[C@@H](CCC(N)=O)C(=O)N[C@@H](CC(C)C)C(=O)N[C@@H](C)C(=O)N[C@@H](C)C(=O)N[C@@H](CCCCN)C(=O)N[C@@H](CCCCN)C(=O)N[C@@H](Cc1ccc(O)cc1)C(=O)N[C@@H](CC(C)C)C(=O)N[C@@H](C)C(=O)N[C@@H](C)C(=O)N[C@H](C(=O)N[C@@H](CC(C)C)C(N)=O)C(C)C)[C@@H](C)O` [Peptide 19] (Ac-HS[Ala(1H-tetrazol-5-yl)]GIFT[Ala(1H-tetrazol-5-yl)]SYSRYRKQLAAKKYLAAVL-NH2) the “survival rate after correction for water, 60° C., 1-week storage” value (from here on “survival rate … 1-week storage”) was 95.8% and the “survival rate after correction for water, 60° C., 2-week storage” value (shortened to “survival rate … 2-week storage”) was 92.7%.

For `CC[C@H](C)[C@H](NC(=O)CNC(=O)[C@H](Cc1nnn[nH]1)NC(=O)[C@H](CO)NC(=O)[C@H](Cc1c[nH]cn1)NC(C)=O)C(=O)N[C@@H](Cc1ccccc1)C(=O)N[C@H](C(=O)N[C@@H](Cc1nnn[nH]1)C(=O)N[C@@H](CO)C(=O)N[C@@H](Cc1ccc(O)cc1)C(=O)N[C@@H](CO)C(=O)N[C@@H](CCCNC(=N)N)C(=O)N[C@@H](Cc1ccc(O)cc1)C(=O)N[C@@H](CCCNC(=N)N)C(=O)N[C@@H](CCCCN)C(=O)N[C@@H](CCC(N)=O)C(=O)N[C@@H](CC(C)C)C(=O)N[C@@H](C)C(=O)N[C@H](C(=O)N[C@@H](CCCCN)C(=O)N[C@@H](CCCCN)C(=O)N[C@@H](Cc1ccc(O)cc1)C(=O)N[C@@H](CC(C)C)C(=O)N[C@@H](C)C(=O)N[C@@H](C)C(=O)N[C@H](C(=O)N[C@@H](C)C(N)=O)C(C)C)C(C)C)[C@@H](C)O` [Peptide 20] (Ac-HS[Ala(1H-tetrazol-5-yl)]GIFT[Ala(1H-tetrazol-5-yl)]SYSRYRKQLAVKKYLAAVA-NH2), the “survival rate … 1-week storage” value was 93.9% and the “survival rate … 2-week storage” value was 91.8%.

With `CC[C@H](C)[C@H](NC(=O)CNC(=O)[C@H](Cc1nnn[nH]1)NC(=O)[C@H](CO)NC(=O)[C@H](Cc1c[nH]cn1)NC(C)=O)C(=O)N[C@@H](Cc1ccccc1)C(=O)N[C@H](C(=O)N[C@@H](Cc1nnn[nH]1)C(=O)N[C@@H](CO)C(=O)N[C@@H](Cc1ccc(O)cc1)C(=O)N[C@@H](CO)C(=O)N[C@@H](CCCNC(=N)N)C(=O)N[C@@H](Cc1ccc(O)cc1)C(=O)N[C@@H](CCCNC(=N)N)C(=O)N[C@@H](CCCNC(=N)N)C(=O)N[C@@H](CCC(N)=O)C(=O)N[C@@H](CC(C)C)C(=O)N[C@@H](C)C(=O)N[C@H](C(=O)N[C@@H](CCCNC(=N)N)C(=O)N[C@@H](CCCNC(=N)N)C(=O)N[C@@H](Cc1ccc(O)cc1)C(=O)N[C@@H](CC(C)C)C(=O)N[C@@H](C)C(=O)N[C@@H](C)C(=O)N[C@H](C(=O)N[C@@H](CC(C)C)C(N)=O)C(C)C)C(C)C)[C@@H](C)O` [Peptide 21] (Ac-HS[Ala(1H-tetrazol-5-yl)]GIFT[Ala(1H-tetrazol-5-yl)]SYSRYRRQLAVRRYLAAVL-NH2) the “survival rate … 1-week storage” value was 97.8% and the “survival rate … 2-week storage” value was 93.5%.

In the case of `CC[C@H](C)[C@H](NC(=O)CNC(=O)[C@H](Cc1nnn[nH]1)NC(=O)[C@H](CO)NC(=O)[C@H](Cc1c[nH]cn1)NC(C)=O)C(=O)N[C@@H](Cc1ccccc1)C(=O)N[C@H](C(=O)N[C@@H](Cc1nnn[nH]1)C(=O)N[C@@H](CO)C(=O)N[C@@H](Cc1ccc(O)cc1)C(=O)N[C@@H](CO)C(=O)N[C@@H](CCCNC(=N)N)C(=O)N[C@@H](Cc1ccc(O)cc1)C(=O)N[C@@H](CCCNC(=N)N)C(=O)N[C@@H](CCCNC(=N)N)C(=O)N[C@@H](CCC(N)=O)C(=O)N[C@@H](CC(C)C)C(=O)N[C@@H](C)C(=O)N[C@H](C(=O)N[C@@H](CCCNC(=N)N)C(=O)N[C@@H](CCCNC(=N)N)C(=O)N[C@@H](Cc1ccc(O)cc1)C(=O)N[C@@H](CC(C)C)C(=O)N[C@@H](C)C(=O)N[C@@H](C)C(=O)N[C@H](C(=O)N[C@@H](CC(C)C)C(=O)NCC(=O)N[C@@H](CCCNC(=N)N)C(=O)N[C@@H](CCCNC(=N)N)C(N)=O)C(C)C)C(C)C)[C@@H](C)O` [Peptide 22] (Ac-HS[Ala(1H-tetrazol-5-yl)]GIFT[Ala(1H-tetrazol-5-yl)]SYSRYRRQLAVRRYLAAVLGRR-NH2), the “survival rate … 1-week storage” value was 98.2%.

In the case of `CC[C@H](C)[C@H](NC(=O)[C@H](C)NC(=O)[C@H](Cc1nnn[nH]1)NC(=O)[C@H](CO)NC(=O)[C@H](Cc1c[nH]cn1)NC(C)=O)C(=O)N[C@@H](Cc1ccccc1)C(=O)N[C@H](C(=O)N[C@@H](Cc1nnn[nH]1)C(=O)N[C@@H](CO)C(=O)N[C@@H](Cc1ccc(O)cc1)C(=O)N[C@@H](CO)C(=O)N[C@@H](CCCNC(=N)N)C(=O)N[C@@H](Cc1ccc(O)cc1)C(=O)N[C@@H](CCCNC(=N)N)C(=O)N[C@@H](CCCCN)C(=O)N[C@@H](CCC(N)=O)C(=O)N[C@@H](CC(C)C)C(=O)N[C@@H](C)C(=O)N[C@H](C(=O)N[C@@H](CCCCN)C(=O)N[C@@H](CCCCN)C(=O)N[C@@H](Cc1ccc(O)cc1)C(=O)N[C@@H](CC(C)C)C(=O)N[C@@H](C)C(=O)N[C@@H](C)C(=O)N[C@H](C(=O)N[C@@H](CC(C)C)C(N)=O)C(C)C)C(C)C)[C@@H](C)O` [Peptide 23] (Ac-HS[Ala(1H-tetrazol-5-yl)]AIFT[Ala(1H-tetrazol-5-yl)]SYSRYRKQLAVKKYLAAVL-NH2), the “survival rate … 1-week storage” value was 96.5% and the “survival rate … 2-week storage” value was 93.1%.

In the case of `CC[C@H](C)[C@H](NC(=O)CNC(=O)[C@H](Cc1nnn[nH]1)NC(=O)[C@H](C)NC(=O)[C@H](Cc1c[nH]cn1)NC(C)=O)C(=O)N[C@@H](Cc1ccccc1)C(=O)N[C@H](C(=O)N[C@@H](Cc1nnn[nH]1)C(=O)N[C@@H](C)C(=O)N[C@@H](Cc1ccc(O)cc1)C(=O)N[C@@H](CO)C(=O)N[C@@H](CCCNC(=N)N)C(=O)N[C@@H](Cc1ccc(O)cc1)C(=O)N[C@@H](CCCNC(=N)N)C(=O)N[C@@H](CCCCN)C(=O)N[C@@H](CCC(N)=O)C(=O)N[C@@H](CC(C)C)C(=O)N[C@@H](C)C(=O)N[C@H](C(=O)N[C@@H](CCCCN)C(=O)N[C@@H](CCCCN)C(=O)N[C@@H](Cc1ccc(O)cc1)C(=O)N[C@@H](CC(C)C)C(=O)N[C@@H](C)C(=O)N[C@@H](C)C(=O)N[C@H](C(=O)N[C@@H](CC(C)C)C(N)=O)C(C)C)C(C)C)[C@@H](C)O` [Peptide 24] (Ac-HA[Ala(1H-tetrazol-5-yl)]GIFT[Ala(1H-tetrazol-5-yl)]AYSRYRKQLAVKKYLAAVL-NH2), the “survival rate … 1-week storage” value was 98.1% and the “survival rate … 2-week storage” value was 94.3%.

In the case of `CC[C@H](C)[C@H](NC(=O)CNC(=O)[C@H](Cc1nnn[nH]1)NC(=O)[C@H](C)NC(=O)[C@H](Cc1c[nH]cn1)NC(C)=O)C(=O)N[C@@H](Cc1ccccc1)C(=O)N[C@H](C(=O)N[C@@H](Cc1nnn[nH]1)C(=O)N[C@@H](CO)C(=O)N[C@@H](Cc1ccc(O)cc1)C(=O)N[C@@H](CO)C(=O)N[C@@H](CCCNC(=N)N)C(=O)N[C@@H](Cc1ccc(O)cc1)C(=O)N[C@@H](CCCNC(=N)N)C(=O)N[C@@H](CCCCN)C(=O)N[C@@H](CCC(N)=O)C(=O)N[C@@H](C)C(=O)N[C@@H](C)C(=O)N[C@H](C(=O)N[C@@H](CCCCN)C(=O)N[C@@H](CCCCN)C(=O)N[C@@H](Cc1ccc(O)cc1)C(=O)N[C@@H](CC(C)C)C(=O)N[C@@H](C)C(=O)N[C@@H](C)C(=O)N[C@H](C(=O)N[C@@H](CC(C)C)C(N)=O)C(C)C)C(C)C)[C@@H](C)O` [Peptide 25] (Ac-HA[Ala(1H-tetrazol-5-yl)]GIFT[Ala(1H-tetrazol-5-yl)]SYSRYRKQAAVKKYLAAVL-NH2), the “survival rate … 1-week storage” value was 95.8% and the “survival rate … 2-week storage” value was 91.2%.
